{"source": "patent US20030236218A1", "about": "“Aryl phosphate derivatives of d4T with selective activity against adenovirus and HIV” (priority 2002, published 2003)", "key": {"[1]": {"settings": "dogs; twice daily hard gelatin capsules 25 mg/kg -100 mg/kg; cumulative dose levels as high as 8.4 g/kg; cited from earlier work"}, "[2]": {"assay": "Hydrolysis rate in alkali conditions", "assay_type": "physicochemical", "description": "Statistical analysis. Each drug was tested at 6-7 different concentrations ranging from 0.0001 μM to 100 μM. Each assay was set up in triplicate wells and repeated 1-3 times. An IC50 value was calculated from each set of triplicate wells using nonlinear regression modeling of the exponential form of the linearized equation (Statview, SAS Institute, Inc., Cary, N.C.). Hydrolysis rates were determined by fitting single exponential decay equations to the disappearance of the compound in alkali conditions (all R^2 values greater than 0.85). The IC50 values obtained were correlated to the log transformed hydrolysis rate constants by fitting a linear model (JMP Software, SAS Institute Inc., Cary, N.C.). P-values less than 0.05 were deemed significant."}, "[3]": {"settings": "cats; twice daily hard gelatin capsules 25 mg/kg -100 mg/kg; cumulative dose levels as high as 8.4 g/kg; cited from earlier work"}, "[4]": {"settings": "mice, cited from earlier work"}, "[5]": {"test_system": "enterovirus strain, ECHO 30, strain Bastianni", "assay": "Enterovirus plaque formation assay in SF cells", "assay_type": "cell-based", "source_text": "Virus stocks. The HIV-1 strain used in this study was HTLV-IIIB (Uckun et al., 1998 Antimicro. Agents and Chemother., 42:383-388). The non-HIV viruses included in the present study were the gancyclovir-sensitive cytomegalovirus (CMV) strain AD169 (ATCC VR-538); acyclovir-sensitive herpes simplex virus (HSV) Type I strain HF (ATCC VR-260); acyclovir-sensitive HSV Type II strain G (ATCC VR-734); adenovirus strain Type 5, strain adenoid 75 (ATCC VR-5); enterovirus strain, ECHO 30, strain Bastianni (ATCC VR-322); and respiratory syncytial virus (RSV), strain Long (ATCC VR-26).\n(§1) Plaque formation assays. Plaque assays were used to examine the activity of the compounds against non-HIV viruses. The skin fibroblast cell line SF (ATCC CRL-2097) was used as a target for AD169, Adenovirus Type 5. […] cell line (ATCC CCL-81) was used as a target for HSV HF and G. The HEP-2 cell line (ATCC CCL-23) was used as a target for the RSV strain Long. These cell lines were cultured at 1×10^5 cells/well in 24-well (all but ECHO 30-infected SF) or 6-well (ECHO 30-infected SF) tissue culture plates with 0.9% methylcellulose or 0.4% SeaPlaque agarose semisolid support. […] Percent inhibition of plaque formation was calculated by comparing the plaque numbers from the test substance-treated infected cells with the plaque numbers from untreated infected cells (i.e., virus controls). The IC50 values were determined using the Statview statistics program (SAS Institute, Inc., Cary, N.C.).\nStatistical analysis. […] An IC50 value was calculated from each set of triplicate wells using nonlinear regression modeling of the exponential form of the linearized equation (Statview, SAS Institute, Inc., Cary, N.C.). […]\nThe skin fibroblast cell line SF (ATCC CRL-2097) was used as a target for AD169, Adenovirus Type 5, and ECHO 30; the VERO cell line (ATCC CCL-81) was used as a target for HF and G; and the HEP-2 cell line (ATCC CCL-23) was used as target for the RSV strain Long. Results are expressed as the average IC50 values in μM. […]"}, "[6]": {"assay": "Stability in murine liver homogenates", "assay_type": "in vitro ADME, Balb/c mice", "settings": "100 μM; Balb/c mouse liver homogenate", "description": "At a predetermined time, an aliquot (100 μl) of spiked liver homogenate was extracted by adding 400 μl of acetone to induce precipitation of proteins, as described above."}, "skin fibroblasts": {"test_system": "skin fibroblasts", "assay": "Cytotoxicity in skin fibroblasts (plaque assay)", "assay_type": "cell-based", "settings": "ADV plaque formation assay", "description": "as §1, with “support. Minimum Essential Medium (MEM) with Earle's salts (Gibco), L-glutamine, non-essential amino acids, 2% heat-inactivated fetal bovine serum, 1% penicillin/streptomycin, and 0.05% gentamicin served as the culture medium. The incubation times were 3 days for HF, G, ECHO 30, and Long; and 7 days for AD169 and Adenovirus Type 5.” for “support.”"}, "Solubility": {"assay": "Solubility", "assay_type": "physicochemical", "settings": "read-out: Solubility"}, "[7]": {"settings": "rats, cited from earlier work"}, "Stability in whole blood": {"assay": "Stability in whole blood", "assay_type": "in vitro ADME", "description": "The whole blood samples were placed in a 37° C. water bath, while plasma samples were stored at −20° C. At a predetermined time, an aliquot (100 μl) of spiked whole blood or plasma was extracted by adding 400 μl of acetone to induce precipitation of proteins, as described above."}, "[8]": {"assay": "Pharmacokinetic studies in mice, intravenous administration", "assay_type": "in vivo, Balb/c mice", "settings": "for AUC: read-out: AUC (converted); for Vd: read-out: Vss; for Tmax: read-out: tmax (converted)", "procedure": "Female Balb/c mice (6-8 weeks old) from Taconic (Germantown, N.Y.) were housed in a controlled environment (12-hours of light/12-hours of dark, 22±1° C., 60±10% relative humidity), which is fully accredited by the USDA. All rodents were housed in microisolator cages (Lab Products, Inc., NJ) containing autoclaved bedding. The mice were allowed free access to autoclaved pellet food and tap water throughout the study.\nBlood samples (˜500 μL) were obtained from the ocular venous plexus by retro-orbital venipuncture at 0, 2, 5, 10, 15, 30, 45, 60, 120, 240 and 360 minutes after intravenous injection.\nAll collected blood samples were heparinized and centrifuged at 7000×g for 5 minutes to separate the plasma fraction from the whole blood. The plasma samples were then processed immediately using the extraction procedure described above.\nPharmacokinetic modeling and parameter calculations were carried out using the WinNonlin Professional Version 3.0 (Pharsight, Inc., Mountain, Calif.) pharmacokinetics software (Chen et al., Pharm. Res., 16, 1003 (1999); Chen et al., Pharm. Res., 16, 117 (1999); Chen et al., J. Clin. Pharmacol., 39, 1248 (1999); Uckun et al., Clin. Cancer Res., 5, 2954 (1999); and Uckun et al., J. Pharmacol. Exp. Ther., 291, 1301 (1999)). An appropriate model was chosen on the basis of the lowest sum of weighted squared residuals, the lowest Schwartz Criterion (SC), the lowest Akaike's Information Criterion (AIC) value, the lowest standard errors of the fitted parameters, and the dispersion of the residuals. The elimination half-life was estimated by linear regression analysis of the terminal phase of the plasma concentration-time profile. The area under the concentration-time curve (AUC) was calculated according to the linear trapezoidal rule between the first sampling time (0 hours) and the last sampling time plus C/k, where C is the concentration of the last sampling and k is the elimination rate constant. The systemic clearance (CL) was determined by dividing the dose by the AUC. The metabolic clearance of the parent drug, the formation clearance of the metabolite, the clearance elimination of the metabolite, and the distribution clearance of the metabolite were estimated by simultaneous fitting of the concentration of parent drug and metabolites as a function of time curve to pharmacokinetic models (see FIGS. 7A & 8A) specified as a system of differential equations (Gabrielsson & Weiner, Phamacokinetic/Phamacodynamic Data Analysis: Concepts and Applications, Swedish Pharmaceutical Press (1997))."}, "[9]": {"settings": "intraperitoneally or orally for up to 8 consecutive weeks, cumulative dose levels as high as 6.4 g/kg"}, "[10]": {"settings": "single intraperitoneal or oral bolus dose levels as high as 500 mg/kg"}, "[11]": {"settings": "after i.v. compound 113, model fit, C.V. of modeling in parentheses"}, "[12]": {"settings": "female, Balb/c, mouse, in vivo, iv, 100 mg/kg, plasma analyte = label, after i.v. 100 mg/kg compound 113, estimate from composite curve of pooled data"}, "[13]": {"settings": "female, Balb/c, mouse, in vivo, iv, 100 mg/kg, plasma analyte = label, after i.v. 100 mg/kg compound 113, mean ± S.E.M"}, "[14]": {"settings": "female, Balb/c, mouse, in vivo, iv"}, "[15]": {"settings": "female, Balb/c, mouse, in vivo, iv, 40 mg/kg, after i.v. 40 mg/kg d4T, estimate from composite curve of pooled data"}, "[16]": {"settings": "female, Balb/c, mouse, in vivo, iv, 40 mg/kg, after i.v. 40 mg/kg d4T, mean ± S.E.M"}, "[17]": {"settings": "female, Balb/c, mouse, in vivo, iv, 75 mg/kg, plasma analyte = label, after i.v. 75 mg/kg Ala-d4T-MP, estimate from composite curve of pooled data"}, "[18]": {"settings": "female, Balb/c, mouse, in vivo, iv, 75 mg/kg, plasma analyte = label, after i.v. 75 mg/kg Ala-d4T-MP, mean ± S.E.M"}}, "note": "Where two headings read alike, the source gives them in different places.", "data": [{"smiles": "COC(=O)C(C)NP(=O)(OC[C@@H]1C=C[C@H](n2cc(C)c(=O)[nH]c2=O)O1)Oc1ccc(Br)cc1", "note": "(stereo partly shown) [Compound 113, 5′-[4-Bromophenyl methoxylaninylphosphate]-2′, 3′-didehydro-3′-deoxy thymidine]", "values": [{"measurement": "tolerability of four-week treatment course", "setting": "[1]", "result": "very well tolerated"}, {"measurement": "Hydrolysis Rate", "setting": "[2]", "result": 0.0210, "unit": "min⁻¹"}, {"measurement": "tolerability of four-week treatment course", "setting": "[3]", "result": "very well tolerated"}, {"measurement": "toxicity on daily administration", "setting": "[4]; [9]", "result": "not associated with any detectable toxicity"}, {"measurement": "acute or subacute toxicity", "setting": "[4]; [10]", "result": "very well tolerated without any detectable acute or subacute toxicity"}, {"measurement": "IC50", "setting": "[5]", "result": "> 100", "unit": "µM"}, {"measurement": "time to decomposition in liver homogenate", "setting": "[6]", "result": "≤ 30", "unit": "min"}, {"measurement": "cytotoxicity (in words)", "setting": "skin fibroblasts", "result": "without any evidence of cytotoxicity even at 100 μM"}, {"measurement": "Solubility", "setting": "Solubility", "result": 3, "unit": "mg/mL"}, {"measurement": "toxicity on daily administration", "setting": "[7]; [9]", "result": "not associated with any detectable toxicity"}, {"measurement": "acute or subacute toxicity", "setting": "[7]; [10]", "result": "very well tolerated without any detectable acute or subacute toxicity"}, {"measurement": "time to complete decomposition in whole blood", "setting": "Stability in whole blood; 250 μM, 37° C.", "result": "≤ 30", "unit": "min"}, {"measurement": "decomposed in whole blood", "setting": "Stability in whole blood; 250 μM, 37° C., 5 minutes", "result": 68, "unit": "%"}, {"measurement": "decomposed in whole blood", "setting": "Stability in whole blood; 250 μM, 37° C., 10 minutes", "result": 87, "unit": "%"}, {"measurement": "decomposed in whole blood", "setting": "Stability in whole blood; 250 μM, 37° C., 15 minutes", "result": 92, "unit": "%"}, {"measurement": "stability in whole blood (in words)", "setting": "Stability in whole blood; spiked whole blood 37° C., 250 μM compound 113, 100 μM Ala-d4T-MP (followed for 1 day)", "result": "very unstable"}, {"measurement": "CLm1 (metabolic clearance of compound 113 / formation clearance of Ala-d4T-MP)", "setting": "[8]; [11]", "result": 83.9, "unit": "mL/min/kg"}, {"measurement": "CLm2 (metabolic clearance of compound 113 / formation clearance of d4T)", "setting": "[8]; [11]", "result": 87.4, "unit": "mL/min/kg"}, {"measurement": "AUC", "setting": "[8]; [12]", "result": 19, "unit": "µM·h"}, {"measurement": "Vd", "setting": "[8]; [12]", "result": 0.82, "unit": "L/kg"}, {"measurement": "Cmax", "setting": "[8]; [13]", "result": 212, "unit": "µM"}, {"measurement": "clearance", "setting": "[8]; [13]", "result": 174, "unit": "mL/min/kg"}, {"measurement": "half-life", "setting": "[8]; [13]", "result": 3.6, "unit": "min"}, {"measurement": "AUC", "setting": "[8]; [13]", "result": 17.9, "unit": "µM·h"}, {"measurement": "Vd", "setting": "[8]; [13]", "result": 0.92, "unit": "L/kg"}]}, {"smiles": "Cc1cn([C@H]2C=C[C@@H](CO)O2)c(=O)[nH]c1=O", "note": "[d4T, 2′, 3′-Didehydro-3′-deoxy thymidine, reference compound]", "values": [{"measurement": "IC50", "setting": "[5]; ECHO 30, SF cells, plaque assay, read-out: IC50", "result": "> 100", "unit": "µM"}, {"measurement": "Solubility", "setting": "Solubility", "result": 83, "unit": "mg/mL"}, {"measurement": "CLme (elimination of d4T derived from Ala-d4T-MP)", "setting": "[8]; after i.v. Ala-d4T-MP, model fit, C.V. of modeling in parentheses", "result": "88.4 (13.0%) ml/min/kg"}, {"measurement": "CLme2 (elimination of d4T from the body)", "setting": "[8]; [11]", "result": "47.1 (74.1%) ml/min/kg"}, {"measurement": "CLme2 (elimination of d4T from the body)", "setting": "[8]; [14]", "result": 62.0, "unit": "mL/min/kg"}, {"measurement": "CLme (elimination of d4T derived from Ala-d4T-MP)", "setting": "[8]; [14]", "result": 88.4, "unit": "mL/min/kg"}, {"measurement": "fraction of parent converted to the metabolite", "setting": "[8]; [14]", "result": 15, "unit": "%"}, {"measurement": "fraction of parent converted to the metabolite (fm)", "setting": "[8]; [14]", "result": 24, "unit": "%"}, {"measurement": "Cmax", "setting": "[8]; [15]", "result": 280, "unit": "µM"}, {"measurement": "clearance", "setting": "[8]; [15]", "result": 15, "unit": "mL/min/kg"}, {"measurement": "half-life", "setting": "[8]; [15]", "result": 30.3, "unit": "min"}, {"measurement": "AUC", "setting": "[8]; [15]", "result": 204, "unit": "µM·h"}, {"measurement": "Vd", "setting": "[8]; [15]", "result": 0.658, "unit": "L/kg"}, {"measurement": "Cmax", "setting": "[8]; [16]", "result": 319, "unit": "µM"}, {"measurement": "clearance", "setting": "[8]; [16]", "result": 15.2, "unit": "mL/min/kg"}, {"measurement": "half-life", "setting": "[8]; [16]", "result": 26.6, "unit": "min"}, {"measurement": "Vd", "setting": "[8]; [16]", "result": 0.582, "unit": "L/kg"}, {"measurement": "Cmax", "setting": "[8]; [17]", "result": 35.2, "unit": "µM"}, {"measurement": "half-life", "setting": "[8]; [17]", "result": 34, "unit": "min"}, {"measurement": "AUC", "setting": "[8]; [17]", "result": 31.5, "unit": "µM·h"}, {"measurement": "Tmax", "setting": "[8]; [17]", "result": 4.4, "unit": "min"}, {"measurement": "Cmax", "setting": "[8]; [18]", "result": 35.9, "unit": "µM"}, {"measurement": "half-life", "setting": "[8]; [18]", "result": 32.4, "unit": "min"}, {"measurement": "AUC", "setting": "[8]; [18]", "result": 30.3, "unit": "µM·h"}, {"measurement": "Tmax", "setting": "[8]; [18]", "result": 5, "unit": "min"}, {"measurement": "Cmax", "setting": "[8]; [12]", "result": 15.7, "unit": "µM"}, {"measurement": "half-life", "setting": "[8]; [12]", "result": 115, "unit": "min"}, {"measurement": "AUC", "setting": "[8]; [12]", "result": 48.6, "unit": "µM·h"}, {"measurement": "Tmax", "setting": "[8]; [12]", "result": 18.7, "unit": "min"}, {"measurement": "half-life", "setting": "[8]; [13]", "result": 116, "unit": "min"}, {"measurement": "AUC", "setting": "[8]; [13]", "result": 47.6, "unit": "µM·h"}, {"measurement": "Tmax", "setting": "[8]; [13]", "result": 17.4, "unit": "min"}, {"measurement": "AUC", "setting": "[8]; female, Balb/c, mouse, plasma, iv, after i.v. 40 mg/kg d4T, mean ± S.E.M", "result": 203, "unit": "µM·h"}]}]}
